US11155586B2, “Cystine knot scaffold platform” (Genentech, Inc., priority 2015, dated 2021)
Like-named read-outs stand apart in the source and are kept apart here. Positions of bridges follow the written chain, without caps; N, C: chain ends. Residues, ends and D or L forms follow the SMILES beside them.

Tests used:
[1] = biological target: T1, PIGF-2 and Flt-1 (Homo sapiens, UniProt P49763); assay: Competition ELISA, growth factor/receptor interaction; assay type: binding; conditions: FIG. 2A
T1 construct: purchased R &D Systems (Minneapolis, Minn.)
Method: (§1) Binding specificity of each peptide was established by competition ELISA. […] After blocking with block buffer (PBS with 0.5% BSA and 0.05% TWEEN®20) for 2 hours at room temperature, the receptor-Fc fusions or biotinylated receptors were serially diluted using assay buffer (PBS with 0.5% BSA and 0.05% TWEEN®20) and incubated for 1 hour at room temperature. […] Competition ELISA was conducted in an identical fashion as described above except after blocking, a mixture of serially diluted peptide containing a constant concentration of receptor-Fc fusion or biotinylated receptor (concentration of receptor was set to EC60) was added and incubated for 1 hour. All recombinant human proteins and antibodies were purchased from R &D Systems (Minneapolis, Minn.).

[2] = biological target: T2, VEGF-D and Flt-4 (Homo sapiens, UniProt O43915); assay: as above; assay type: binding; conditions: FIG. 2A
T2 construct: purchased R &D Systems (Minneapolis, Minn.)
Method: as §1

[3] = biological target: T3, EGF and EGFR (Homo sapiens, UniProt P01133); assay: as above; assay type: binding; conditions: FIG. 2B
T3 construct: purchased R &D Systems (Minneapolis, Minn.)
Method: as §1

[4] = biological target: T4, NGF and NGFR (Homo sapiens, UniProt P01138); assay: as above; assay type: binding; conditions: FIG. 2B
T4 construct: purchased R &D Systems (Minneapolis, Minn.)
Method: as §1

[5] = biological target: T5, IGF and IGFR (Homo sapiens, UniProt P05019); assay: as above; assay type: binding; conditions: FIG. 2B
T5 construct: purchased R &D Systems (Minneapolis, Minn.)
Method: as §1

[6] = biological target: T6, VEGF-A and Flt-1 (Homo sapiens, UniProt P15692); assay: as above; assay type: binding; conditions: FIGS. 2A and 2B
T6 construct: VEGF-A(8-109) and Flt-1; purchased R &D Systems (Minneapolis, Minn.)
Method: as §1

[7] = biological target: T7, hVEGF-A (Homo sapiens, UniProt P15692); assay: KDR-CHO VEGF assay to determine cellular IC50 (VEGF mediated Tyr phosphorylation of KDR); assay type: cell-based
T7 sequence (P15692 207-395): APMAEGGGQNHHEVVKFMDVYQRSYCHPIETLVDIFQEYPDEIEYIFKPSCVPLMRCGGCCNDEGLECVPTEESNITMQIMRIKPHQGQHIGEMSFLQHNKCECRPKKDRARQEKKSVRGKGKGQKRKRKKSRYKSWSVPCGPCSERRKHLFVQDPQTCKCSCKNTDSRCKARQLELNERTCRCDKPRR
Method: KDR-CHO cells (CHO cells stably transfected with gD tagged-KDR) were grown in cell growth medium (DMEM/Ham's F-12, 10% diafiltered FBS (GIBCO catalog no. 26400), 25 mM HEPES, 2 mM L-GLUTAMAX™). For VEGF stimulation assay, 5×10^4 cells/well were plated in 100 μl of cell plating medium (DMEM/Ham's F-12, 0.2% BSA, 0.25% diafiltered FBS, 25 mM HEPES, 2 mM L-GLUTAMAX™) in 96-well tissue culture plate and incubated at 37° C. overnight. The medium was replaced with 100 I1 of serum-free cell stimulation medium (DMEM/Ham's F-12, 0.5% BSA, 25 mM HEPES) and cells were incubated at 37° C. for 2 hr. One hour before stimulation, the medium was replaced with 50 I1 of serum-free cell stimulation medium. Concurrently, VEGF (50 ng/ml for hVEGF, 100 ng/ml for mVEGF and rVEGF) was pre-incubated with titrated amount of CKP or anti-VEGF in 50 μl of serum-free cell stimulation medium at 37° C. for 1 hour and added to the cells. The cells were stimulated for 15 min at 37 C and the medium is removed. The cells were lysed with 130 I1 of ice-cold cell lysis buffer (150 mM NaCl, 50 mM HEPES, 0.5% Triton-X 100, HALT protease and phosphatase inhibitor cocktail (ThermoFisher Scientific, Inc. catalog no. 78444), 5 mM EDTA). VEGF mediated Tyr phosphorylation of KDR was determined by ELISA-based assay. Briefly, MAXISORP™ 96 well plates (ThermoFisher Scientific, Inc. catalog no. 439454) were coated with 100 I1 of anti-gD antibody diluted in PBS (1 μg/ml) at 4° C. overnight and washed three times with washing buffer (PBS, 0.05% TWEEN®20, pH 7.4). The plates were blocked with 300 I1 of blocking buffer (PBS, 0.5% BSA) at room temperature for 1 hour followed by washing three times with washing buffer. The above KDR-CHO cell lysate (100 μl) was added to each well and incubated at room temperature for 2 hours. The plates were washed four times with washing buffer followed by incubation with 100 I1 of 0.5 μg/ml biotin-conjugated anti-phosphotyrosine (clone 4G10, Millipore catalog no. 16-103) in blocking buffer at room temperature for 2 hours. After washing four times, the plates were incubated with 100 I1 of HRP-conjugated streptavidin in blocking buffer at room temperature for 30 min. After washing four times, the plates were developed with 100 I1 of TMB substrate (BD Biosciences) at room temperature for 20-30 min and stopped by addition of 50 μl of H2SO4 solution. The optical density of each well was determined using a microplate reader set to 450 nm.

[8] = biological target: T8, hVEGF(8-109) (Homo sapiens, UniProt P15692); assay: Spot phage ELISA; assay type: binding
T8 construct: hVEGF(8-109) or BSA were coated on 384-well MAXISORP™ immunoplates
T8 sequence (P15692 214-315): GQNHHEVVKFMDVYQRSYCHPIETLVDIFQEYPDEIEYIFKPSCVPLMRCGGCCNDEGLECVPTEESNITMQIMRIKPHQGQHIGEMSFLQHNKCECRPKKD
Summary of the method: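 After four selection rounds, phage supernatants from single clones (1:3 in PBT) were added to wells coated with hVEGF(8-109) or BSA; binding detected with anti-M13-HRP and TMB. Positive clones had target signal more than 3 times BSA background.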

[9] = system: trypsin; assay: Resistance to trypsin digestion; assay type: in vitro ADME; conditions: for resistance to trypsin digestion: FIG. 4
Method: Approximately 20% of VEGF_CKP9.54.90 was cleaved at Arg13 within loop 2 after 24 h incubation with trypsin at 37° C.

[10] = biological target: T9, hVEGF-A (8-109) (Homo sapiens, UniProt P15692); assay: Phage competition ELISA; assay type: binding
T9 sequence (P15692 214-315): T8 sequence (P15692 214-315)

[11] = IC50 against VEGF-A in in vitro and cellular assays, Table 25, improved potency compared to parent VEGF-CKP9
[12] = VEGF_CKP9 Loop1/Loop5 affinity-matured variants, Table 24

T1 sequence (P49763 19-170 isoform P49763-3 limits assumed): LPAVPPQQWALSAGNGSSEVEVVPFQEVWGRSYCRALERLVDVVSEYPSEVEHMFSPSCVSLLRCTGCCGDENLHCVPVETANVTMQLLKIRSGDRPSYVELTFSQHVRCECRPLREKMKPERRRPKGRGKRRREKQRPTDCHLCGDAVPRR
T3 sequence (P01133 971-1023 limits assumed): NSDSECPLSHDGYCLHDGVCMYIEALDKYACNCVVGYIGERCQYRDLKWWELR
T2 sequence (O43915 89-205 limits assumed): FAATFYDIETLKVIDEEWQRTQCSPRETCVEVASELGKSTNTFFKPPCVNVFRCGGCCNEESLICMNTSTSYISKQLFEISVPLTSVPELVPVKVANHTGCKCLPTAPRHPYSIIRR
T4 sequence (P01138 122-241): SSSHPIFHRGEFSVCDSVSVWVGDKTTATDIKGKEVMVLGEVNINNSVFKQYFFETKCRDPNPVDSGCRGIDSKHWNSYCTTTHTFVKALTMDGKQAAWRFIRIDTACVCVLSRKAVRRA
T5 sequence (P05019 49-118 limits assumed): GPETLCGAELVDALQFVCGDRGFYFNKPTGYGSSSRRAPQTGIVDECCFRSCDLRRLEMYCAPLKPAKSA

SMILES	IC50 ([7]; Cellular IC50, Table 28) [nM]	FOLD IMPROVEMENT RELATIVE TO VARIANT 9.54.90 ([7]; Table 36, from cellular IC50)	resistance to trypsin digestion [9]	IC50 ([7]; Cellular IC50, Table 25) [nM]	IC50 [7, 11] [nM]	S/N (signal to noise ratio as compared to BSA control) ([8]; Table 24)	ELISA [8, 12]	IC50 [10] [nM]	other results
CC[C@H](C)[C@@H]1NC(=O)[C@H](CC(N)=O)NC(=O)[C@@H](NC(=O)CN)CSSC[C@@H](C(=O)N[C@H](C(=O)N[C@H]2CSSC[C@@H](C(=O)NCC(=O)O)NC(=O)[C@H](CO)NC(=O)[C@H](CCC(N)=O)NC(=O)[C@H](Cc3ccc(O)cc3)NC(=O)[C@H](Cc3ccc(O)cc3)NC(=O)[C@H](CCC(N)=O)NC2=O)C(C)C)NC(=O)CNC(=O)[C@H](C)NC(=O)[C@H](CC(C)C)NC(=O)[C@@H]2CSSC[C@H](NC(=O)CNC(=O)[C@H](Cc3c[nH]c4ccccc34)NC(=O)[C@H](Cc3ccccc3)NC(=O)[C@@H]3CCCN3C(=O)[C@H](CC(C)C)NC(=O)[C@H](CCSC)NC1=O)C(=O)NCC(=O)N[C@@H](CCCNC(=N)N)C(=O)N[C@@H](CC(=O)O)C(=O)N[C@@H](Cc1ccccc1)C(=O)N[C@@H](CCC(=O)O)C(=O)N2 [VEGF_CKP9.54.90] (H-GCNIMLPFWGCGRDFECLAGCVCQYYQSCG-OH; disulfide 2-21, 11-17, 23-29; N-terminus and C-terminus assumed)	1.35	1	maintain a degree of resistance						disruption of the interaction between PIGF-2 and Flt-1 [1]: not disrupt; disruption of the interaction between VEGF-D and Flt-4 [2]: not disrupt; disruption of the interaction between EGF and EGFR [3]: not disrupt; disruption of the interaction between NGF and NGFR [4]: not disrupt; disruption of the interaction between IGF and IGFR [5]: not disrupt; disruption of the interaction between VEGF-A and Flt-1 [6]: disrupts; IC50 ([7]; Cellular IC50 (nM), Table 36, loop 3/loop 4 variants): 1.35 nM; IC50 ([7]; Table 38, F8Y and/or unnatural amino acid variants, read-out: Cellular IC50): 1.35 nM; FOLD IMPROVEMENT RELATIVE TO VARIANT 9.54.90 ([7]; Table 38, from cellular IC50): 1; S/N (signal to noise ratio as compared to BSA control) ([8]; Table 26): 29.5; ELISA ([8]; loop 2 variants based on 9.54 framework, Table 26): 2.3; metabolised at 24 h ([9]; 24 h incubation with trypsin at 37° C., read-out: fraction cleaved at Arg13 within loop 2): ~20%
CC[C@H](C)[C@@H]1NC(=O)[C@H](CC(N)=O)NC(=O)[C@@H](NC(=O)CN)CSSC[C@@H](C(=O)N[C@H](C(=O)N[C@H]2CSSC[C@@H](C(=O)NCC(=O)O)NC(=O)[C@H](CO)NC(=O)[C@H](CCC(N)=O)NC(=O)[C@H](Cc3ccc(O)cc3)NC(=O)[C@H](Cc3ccc(O)cc3)NC(=O)[C@H](CCC(N)=O)NC2=O)C(C)C)NC(=O)CNC(=O)[C@H](C)NC(=O)[C@H](CC(C)C)NC(=O)[C@@H]2CSSC[C@H](NC(=O)CNC(=O)[C@H](Cc3c[nH]c4ccccc34)NC(=O)[C@H](Cc3ccccc3)NC(=O)[C@@H]3CCCN3C(=O)[C@H](CC(C)C)NC(=O)[C@H](CCSC)NC1=O)C(=O)N[C@@H](CCCCN)C(=O)N[C@@H](CCC(N)=O)C(=O)N[C@@H](CC(=O)O)C(=O)N[C@@H](CO)C(=O)N[C@@H](CC(=O)O)C(=O)N2 [VEGF_CKP9.54] (H-GCNIMLPFWGCKQDSDCLAGCVCQYYQSCG-OH; disulfide 2-21, 11-17, 23-29 (inferred); N-terminus and C-terminus assumed)	188			188	100 to 200	28.4	2.1	450	
CC[C@H](C)[C@@H]1NC(=O)[C@H](CC(=O)O)NC(=O)[C@@H]2CCCN2C(=O)CNC(=O)[C@@H]2CSSC[C@H](NC(=O)[C@H](CC(=O)O)NC1=O)C(=O)N[C@@H](CC(C)C)C(=O)N[C@@H](C)C(=O)NCC(=O)N[C@H](C(=O)N[C@H](C(=O)N[C@H]1CSSC[C@@H](C(=O)NCC(=O)O)NC(=O)[C@H](CO)NC(=O)[C@H](CC(N)=O)NC(=O)[C@H](Cc3ccc(O)cc3)NC(=O)[C@H](Cc3c[nH]c4ccccc34)NC(=O)[C@H](Cc3c[nH]cn3)NC1=O)C(C)C)CSSC[C@H](NC(=O)CN)C(=O)N[C@@H](CC(=O)O)C(=O)N[C@@H](C(C)C)C(=O)N[C@@H](CCSC)C(=O)N[C@@H](CCC(N)=O)C(=O)N1CCC[C@H]1C(=O)N[C@@H](Cc1ccc(O)cc1)C(=O)N[C@@H](Cc1c[nH]c3ccccc13)C(=O)NCC(=O)N2 [VEGF_CKP9.63.12] (H-GCDVMQPYWGCGPDIDCLAGCVCHWYNSCG-OH; disulfide 2-21, 11-17, 23-29 (inferred); N-terminus and C-terminus assumed)		0.74	maintain a degree of resistance						S/N (signal to noise ratio as compared to BSA control) ([8]; Table 27): 39.9; ELISA ([8]; loop 2 variants based on VEGF_CKP9.63 framework, Table 27): 2.6
CSCC[C@@H]1NC(=O)[C@H](C(C)C)NC(=O)[C@H](CC(=O)O)NC(=O)[C@@H](NC(=O)CN)CSSC[C@@H](C(=O)N[C@H](C(=O)N[C@H]2CSSC[C@@H](C(=O)NCC(=O)O)NC(=O)[C@H](CO)NC(=O)[C@H](CC(N)=O)NC(=O)[C@H](Cc3ccc(O)cc3)NC(=O)[C@H](Cc3c[nH]c4ccccc34)NC(=O)[C@H](Cc3c[nH]cn3)NC2=O)C(C)C)NC(=O)CNC(=O)[C@H](C)NC(=O)[C@H](CC(C)C)NC(=O)[C@@H]2CSSC[C@H](NC(=O)CNC(=O)[C@H](Cc3c[nH]c4ccccc34)NC(=O)[C@H](Cc3ccc(O)cc3)NC(=O)[C@@H]3CCCN3C(=O)[C@H](CCC(N)=O)NC1=O)C(=O)N[C@@H](CCCCN)C(=O)N[C@@H](CCC(N)=O)C(=O)N[C@@H](CC(=O)O)C(=O)N[C@@H](CO)C(=O)N[C@@H](CC(=O)O)C(=O)N2 [VEGF_CKP9.63] (H-GCDVMQPYWGCKQDSDCLAGCVCHWYNSCG-OH; disulfide 2-21, 11-17, 23-29 (inferred); N-terminus and C-terminus assumed)	140			140	100 to 200	29.7	2.0	146	
